The text below walks through data of US20080152640A1, “Means and Methods For Treating a Disease Which is Associated With an Excess Transport of Hyaluronan Across a Lipid Bilayer” (priority 2003, published 2008).

For assay [1], the system named is human skin fibroblasts. Briefly: Proliferation of human skin fibroblasts (cell counting). The conditions noted are these: Homo sapiens, Skin fibroblast, read-out: Proliferation (IC50). The assay is classed as cell-based. As to the method:
Human fibroblasts were grown in […] in Dulbecco's modified Eagles medium supplemented with streptomycin/penicillin (100 units of each/ml), kanamycin (100 units/ml) and 10% foetal calf serum. Cell proliferation was determined by cell counting after trypsinisation three days after seeding.

Assay [2] concerns human fibroblasts. Briefly: Hyaluronan production of human fibroblasts (ELISA of culture medium). The assay is classed as cell-based. As to conditions: Fibroblast; human fibroblasts, culture medium; read-out: HA production (IC50). A general note: An ELISA detects its analyte on a solid surface through an enzyme-linked reagent.
The target of assay [3] is T1, MRP7 (Homo sapiens, UniProt Q5T3U5).
T1 sequence (Q5T3U5 1-1492): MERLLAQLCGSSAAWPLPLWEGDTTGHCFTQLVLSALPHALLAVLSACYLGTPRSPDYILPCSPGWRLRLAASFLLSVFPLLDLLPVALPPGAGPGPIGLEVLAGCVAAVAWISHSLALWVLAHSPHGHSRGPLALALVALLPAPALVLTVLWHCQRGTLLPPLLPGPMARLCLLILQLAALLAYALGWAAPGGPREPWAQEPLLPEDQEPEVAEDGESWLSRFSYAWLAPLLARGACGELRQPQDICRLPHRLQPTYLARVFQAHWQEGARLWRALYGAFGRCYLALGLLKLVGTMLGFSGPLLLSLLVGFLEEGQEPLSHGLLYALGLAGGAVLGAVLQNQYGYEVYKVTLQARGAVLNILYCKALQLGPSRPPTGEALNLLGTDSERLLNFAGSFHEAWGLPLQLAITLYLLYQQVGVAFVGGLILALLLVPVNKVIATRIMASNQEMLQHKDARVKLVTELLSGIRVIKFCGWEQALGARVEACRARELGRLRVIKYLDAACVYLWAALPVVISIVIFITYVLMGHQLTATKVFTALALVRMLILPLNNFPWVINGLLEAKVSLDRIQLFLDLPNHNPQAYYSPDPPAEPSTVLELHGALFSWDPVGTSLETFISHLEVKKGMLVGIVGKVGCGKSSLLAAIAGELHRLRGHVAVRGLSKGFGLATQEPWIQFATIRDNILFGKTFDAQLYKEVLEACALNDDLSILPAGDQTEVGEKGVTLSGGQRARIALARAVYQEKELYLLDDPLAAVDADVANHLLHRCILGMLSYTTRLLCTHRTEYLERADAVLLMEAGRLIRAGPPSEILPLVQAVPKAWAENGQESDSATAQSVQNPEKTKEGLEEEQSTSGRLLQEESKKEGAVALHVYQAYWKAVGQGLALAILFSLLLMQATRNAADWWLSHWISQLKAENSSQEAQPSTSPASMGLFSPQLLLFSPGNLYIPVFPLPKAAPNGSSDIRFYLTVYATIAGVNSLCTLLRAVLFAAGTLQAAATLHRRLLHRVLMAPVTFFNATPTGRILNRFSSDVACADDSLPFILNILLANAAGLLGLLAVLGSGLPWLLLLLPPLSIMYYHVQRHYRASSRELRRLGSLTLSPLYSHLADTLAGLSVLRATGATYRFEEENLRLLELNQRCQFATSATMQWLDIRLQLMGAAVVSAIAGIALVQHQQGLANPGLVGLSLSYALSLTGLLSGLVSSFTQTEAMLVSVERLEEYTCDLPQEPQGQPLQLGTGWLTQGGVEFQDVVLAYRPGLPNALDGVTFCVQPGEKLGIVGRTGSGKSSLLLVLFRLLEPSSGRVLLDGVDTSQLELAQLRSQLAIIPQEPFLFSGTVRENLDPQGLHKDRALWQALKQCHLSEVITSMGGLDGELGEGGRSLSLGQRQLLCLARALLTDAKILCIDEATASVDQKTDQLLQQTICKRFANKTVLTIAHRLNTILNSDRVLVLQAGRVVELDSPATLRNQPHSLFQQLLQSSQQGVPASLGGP
The conditions noted are these: cited from earlier work.

With `CCCN(CCC)S(=O)(=O)c1ccc(C(=O)O)cc1` [Probenecid], the IC50 in assay [1] and in assay [2] was 200 µM each time. In assay [3], the “inhibition of 17β-glucuronosyl-estradiol export by MRP7” value was “weak inhibitor”. Besides, in assay [3], the “published inhibitory concentrations IC50 or Ki, MRP7” value is on record as “weak”.
